Data reported in US7998987B2, “Inhibitors of c-Met and uses thereof” (Vertex Pharmaceuticals Incorporated, priority 2005, dated 2011).

Target: c-Met (Homo sapiens, UniProt P08581)
Experiment: Ki determination for the inhibition of c-Met kinase activity (standard coupled enzyme system)
Type: biochemical
Settings: coupled enzyme system, 200 μM ATP, 80 nM c-Met, 30° C.; read-out: c-Met Ki
How it was run: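 The kinase (80 nM) turned over polyGluTyr (10 μM) with ATP (200 μM, added to start), coupled to NADH oxidation via pyruvate kinase/lactate dehydrogenase at pH 7.5 HEPES, 1.5% DMSO.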

c-Met, sequence (P08581 25-1390): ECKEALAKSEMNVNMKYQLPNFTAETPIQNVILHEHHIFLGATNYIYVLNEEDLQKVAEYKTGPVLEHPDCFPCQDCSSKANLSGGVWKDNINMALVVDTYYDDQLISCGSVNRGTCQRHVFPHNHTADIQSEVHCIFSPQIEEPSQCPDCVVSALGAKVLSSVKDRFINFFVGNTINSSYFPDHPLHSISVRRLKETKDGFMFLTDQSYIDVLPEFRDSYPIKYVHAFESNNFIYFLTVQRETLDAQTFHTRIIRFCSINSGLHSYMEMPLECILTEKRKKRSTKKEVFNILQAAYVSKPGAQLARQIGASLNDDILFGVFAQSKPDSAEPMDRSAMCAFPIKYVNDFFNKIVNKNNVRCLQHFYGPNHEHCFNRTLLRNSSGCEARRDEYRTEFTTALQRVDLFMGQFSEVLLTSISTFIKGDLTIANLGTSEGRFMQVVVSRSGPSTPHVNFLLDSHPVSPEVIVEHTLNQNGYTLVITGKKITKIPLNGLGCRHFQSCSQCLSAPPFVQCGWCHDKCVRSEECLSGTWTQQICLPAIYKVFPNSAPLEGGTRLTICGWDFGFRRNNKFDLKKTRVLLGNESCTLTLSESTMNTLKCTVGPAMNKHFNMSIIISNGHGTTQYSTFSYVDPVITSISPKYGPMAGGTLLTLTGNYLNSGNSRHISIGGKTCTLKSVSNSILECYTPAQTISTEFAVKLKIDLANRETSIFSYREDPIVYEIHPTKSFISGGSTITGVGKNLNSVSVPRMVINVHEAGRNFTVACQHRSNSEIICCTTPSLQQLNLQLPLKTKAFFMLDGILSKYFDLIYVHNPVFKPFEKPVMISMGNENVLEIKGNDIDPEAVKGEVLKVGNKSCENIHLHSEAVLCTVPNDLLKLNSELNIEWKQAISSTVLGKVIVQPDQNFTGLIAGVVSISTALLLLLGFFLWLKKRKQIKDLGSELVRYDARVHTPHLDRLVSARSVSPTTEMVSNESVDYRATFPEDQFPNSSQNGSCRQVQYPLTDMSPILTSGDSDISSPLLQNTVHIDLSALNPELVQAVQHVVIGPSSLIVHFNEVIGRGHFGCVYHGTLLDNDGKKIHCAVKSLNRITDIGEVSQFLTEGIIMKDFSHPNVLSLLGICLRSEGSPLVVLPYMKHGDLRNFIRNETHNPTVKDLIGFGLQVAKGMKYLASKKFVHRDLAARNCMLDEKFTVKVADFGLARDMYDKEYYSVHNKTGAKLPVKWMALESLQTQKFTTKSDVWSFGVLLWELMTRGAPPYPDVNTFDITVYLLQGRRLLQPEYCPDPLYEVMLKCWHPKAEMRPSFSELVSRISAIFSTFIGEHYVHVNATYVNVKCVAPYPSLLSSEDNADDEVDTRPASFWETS

| Ki [nM] | Compound |
| --- | --- |
| < 100 | C[C@@H](c1ccc(O)cc1)c1nnc2ccc(Nc3ccc(F)c(Cl)c3)nn12 [Compound 426] |
| < 100 | Nc1ncccc1OCc1nnc2ccc(Nc3cccc(Cl)c3)nn12 [Compound 413] |
| 100 to 2000 | c1ccc(C2=Nn3c(Cc4ccc5c(c4)OCO5)nnc3SC2)cc1 [Compound 523] |
| < 100 | CC(c1ccc(O)cc1)c1nnc2ccc(Nc3cccc(Cl)c3)nn12 (stereo not drawn) [Compound 321] |
| 100 to 2000 | Fc1ccc(Nc2ccc3nnc(C4(c5ccc6c(c5)OCO6)CC4)n3n2)cc1Cl [Compound 427] |
| 100 to 2000 | Oc1cccc(OCc2nnc3ccc(Nc4cccc(Cl)c4)nn23)c1 [Compound 409] |
| 100 to 2000 | COC[C@@H](C)Nc1ccc2nnc(Cc3ccc(O)cc3)n2n1 [Compound 304] |
| > 2000 | Fc1ccc(Cc2nnc3n2N=C(c2ccccc2)CS3)cc1 [Compound 527] |
| < 100 | Oc1ccc(Cc2nnc3ccc(Nc4ccc(F)c(Cl)c4)nn23)cc1 [Compound 424] |
| > 2000 | NC(=O)c1ccc(NCc2nnc3ccc(Nc4cccc(Cl)c4)nn23)nc1 [Compound 455] |
| 100 to 2000 | CC(C)C(=O)N1CCC(Nc2ccc3nnc(Cc4ccc(O)cc4)n3n2)CC1 [Compound 324] |
| < 100 | Clc1cccc(Nc2ccc3nnc(COc4ccc5cccnc5c4)n3n2)c1 [Compound 423] |
| > 2000 | CCN(CC)CC(C)Nc1ccc2nnc(Cc3ccc(O)cc3)n2n1 (stereo not drawn) [Compound 311] |
| 100 to 2000 | C[C@@H](c1ccc(O)cc1)c1nnc2ccc(Nc3cc(Cl)ccc3OCCN3CCCC3)nn12 [Compound 443] |
| > 2000 | CN(C)c1ccc(Cc2nnc3ccc(Nc4cccc(Cl)c4)nn23)cc1 [Compound 457] |
| 100 to 2000 | C[C@@H](c1ccc(O)cc1)c1nnc2ccc(Cl)nn12 [Compound 501] |
| 100 to 2000 | O=C(O)Cc1ccc(C2=Nn3c(Cc4ccc(O)cc4)nnc3SC2)s1 [Compound 539] |
| > 2000 | Clc1cccc(Nc2ccc3nnc(CNc4cccc(OCc5ccccc5)c4)n3n2)c1 [Compound 333] |
| 100 to 2000 | COc1ccc(Cc2nnc3ccc(Nc4cc(C)cc(C)c4)nn23)cc1 [Compound 297] |
| 100 to 2000 | CC[C@H](CO)Nc1ccc2nnc(Cc3ccc(O)cc3)n2n1 [Compound 312] |
| 100 to 2000 | NC(c1ccc(F)cc1)c1nnc2ccc(Nc3cccc(Cl)c3)nn12 (stereo not drawn) [Compound 492] |
| < 100 | Clc1cccc(Nc2ccc3nnc(C4(c5ccc6c(c5)OCO6)CC4)n3n2)c1 [Compound 400] |
| > 2000 | Fc1ccc(OCc2nnc3ccc(Nc4cccc(Cl)c4)nn23)cc1F [Compound 378] |
| 100 to 2000 | C[C@@H](c1ccc(O)cc1)c1nnc2ccc(Nc3ccc(Cl)nn3)nn12 [Compound 512] |
| > 2000 | Fc1ccc2[nH]cc(Cc3nnc4ccc(Nc5cccc(Cl)c5)nn34)c2c1 [Compound 459] |

| Ki [nM] | Compound |
| --- | --- |
| > 2000 | c1ccc(C2=Nn3c(Cc4ccncc4)nnc3SC2)cc1 [Compound 529] |
| 100 to 2000 | Oc1ccc(NCc2nnc3ccc(Nc4cccc(Cl)c4)nn23)cc1 [Compound 412] |
| < 100 | COC(=O)c1ccc(OCc2nnc3ccc(Nc4cccc(Cl)c4)nn23)c(N)c1 [Compound 433] |
| > 2000 | N#Cc1cccc(OCc2nnc3ccc(Nc4cccc(Cl)c4)nn23)c1 [Compound 471] |
| > 2000 | NC(=O)c1ncccc1OCc1nnc2ccc(Nc3cccc(Cl)c3)nn12 [Compound 478] |
| > 2000 | Fc1ccc(NCc2nnc3ccc(Nc4cccc(Cl)c4)nn23)c(Cl)c1 [Compound 342] |
| > 2000 | CC(Cn1cnc2ccccc21)c1nnc2ccc(Nc3cccc(Cl)c3)nn12 (stereo not drawn) [Compound 421] |
| > 2000 | O=C(Nc1ccc2nnc(Cc3ccc(O)cc3)n2n1)c1ccccc1 [Compound 397] |
| > 2000 | CC(=O)Nc1ccc2nnc(Cc3ccc(O)cc3)n2n1 [Compound 396] |
| < 100 | Oc1ccc(Cc2nnc3n2N=C(c2cccs2)CS3)cc1 [Compound 543] |
| > 2000 | O=C1NCCCCC1Nc1ccc2nnc(Cc3ccc(O)cc3)n2n1 (stereo not drawn) [Compound 307] |
| > 2000 | Fc1ccc(C2(c3nnc4ccc(Nc5cccc(Cl)c5)nn34)CCCC2)cc1 [Compound 416] |
| 100 to 2000 | Clc1cccc(Nc2ccc3nnc(Cc4cc5c(cc4Cl)OCO5)n3n2)c1 [Compound 504] |
| > 2000 | Clc1cccc(Nc2ccc3nnc(CNc4cccc(Oc5ccccc5)c4)n3n2)c1 [Compound 334] |
| < 100 | Cc1cc(C)cc(Nc2ccc3nnc(Cc4ccc(O)cc4)n3n2)c1 [Compound 295] |
| 100 to 2000 | CCc1cccc(Nc2ccc3nnc(Cc4ccc(O)c(Cl)c4)n3n2)c1 [Compound 290] |
| 100 to 2000 | Oc1ccc(Cc2nnc3n2N=C(c2ccncc2)CS3)cc1 [Compound 538] |
| > 2000 | CCOc1cccc(NCc2nnc3ccc(Nc4cccc(Cl)c4)nn23)c1 [Compound 339] |
| 100 to 2000 | CCOC(=O)C1=Nn2c(Cc3ccc(O)cc3)nnc2SC1 [Compound 534] |
| < 100 | CCC(c1ccc(OC)cc1)c1nnc2ccc(Nc3cccc(Cl)c3)nn12 (stereo not drawn) [Compound 357] |
| > 2000 | CS(=O)(=O)Nc1cccc(Cc2nnc3n2N=C(c2ccccc2)CS3)c1 [Compound 526] |
| > 2000 | CC1=Nn2c(Cc3ccc(O)cc3)nnc2SC1C (stereo not drawn) [Compound 536] |
| 100 to 2000 | COC(=O)c1ccc(NCc2nnc3ccc(Nc4cccc(Cl)c4)nn23)nc1 [Compound 479] |
| > 2000 | Clc1cccc(Nc2ccc3nnc(Cn4nc(Cl)c5ccccc54)n3n2)c1 [Compound 486] |
| < 100 | C[C@@H](c1ccc(O)cc1)c1nnc2ccc(Nc3cc(Cl)cnc3Cl)nn12 [Compound 509] |

Same assay, conditions: coupled enzyme system, 200 μM ATP, 10 μM polyGluTyr, 80 nM c-Met, 30° C.; read-out: c-Met Ki

| Ki [nM] | Compound |
| --- | --- |
| 100 to 2000 | Oc1ccc(Cc2nnc3ccc(N[C@H]4CC[C@H](O)CC4)nn23)cc1 [Compound 272] |
| 100 to 2000 | CC(C)CC(C)Nc1ccc2nnc(Cc3ccc(O)cc3)n2n1 (stereo not drawn) [Compound 279] |
| 100 to 2000 | Clc1cc(Cl)cc(Nc2ccc3nnc(Cc4ccc5c(c4)OCO5)n3n2)c1 [Compound 246] |
| < 100 | CC(C)[C@@H](N)C(=O)Oc1ccc([C@H](C)c2nnc3sc(Nc4cccc(Cl)c4)nn23)cc1 [Compound 168] |
| > 2000 | O=C1CCCN1CCCNc1ccc2nnc(Cc3ccc(O)cc3)n2n1 [Compound 199] |
| 100 to 2000 | Oc1ccc(Cc2nnc3ccc(Nc4ccc(Cl)cc4)nn23)cc1 [Compound 186] |
| < 100 | Fc1cc(F)cc(Nc2nn3c(Cc4ccc5c(c4)OCO5)nnc3s2)c1 [Compound 127] |
| 100 to 2000 | Clc1cc(Cl)cc(Nc2ccc3nnc(Cc4ccncc4)n3n2)c1 [Compound 247] |
| 100 to 2000 | Oc1ccc(Cc2nnc3sc(NCC4CCCO4)nn23)cc1 (stereo not drawn) [Compound 17] |
| 100 to 2000 | Clc1ccc(Nc2nn3c(Cc4ccc5c(c4)OCO5)nnc3s2)cc1 [Compound 56] |
| < 100 | C[C@@H](c1ccc(OC(=O)[C@@H](C)N)cc1)c1nnc2sc(Nc3cccc(Cl)c3)nn12 [Compound 167] |
| 100 to 2000 | CNC(=O)c1cccc(Nc2ccc3nnc(Cc4ccc(OC)cc4)n3n2)c1 [Compound 235] |
| 100 to 2000 | Oc1ccc(Cc2nnc3ccc(-c4ccccc4)nn23)cc1 [Compound 176] |
| < 100 | Cc1ccc(Nc2nn3c(Cc4ccc(O)cc4)nnc3s2)cc1 [Compound 60] |
| < 100 | CC(c1ccc(O)cc1)c1nnc2sc(Nc3ccccc3Cl)nn12 (stereo not drawn) [Compound 66] |
| 100 to 2000 | Oc1ccc(CCc2nnc3sc(Nc4cc(F)cc(F)c4)nn23)cc1 [Compound 111] |
| > 2000 | c1cc2c(cc1Cc1nnc3sc(NCC4CCCO4)nn13)OCO2 (stereo not drawn) [Compound 42] |
| 100 to 2000 | COc1cccc(Nc2ccc3nnc(Cc4ccc(O)c(Cl)c4)n3n2)c1 [Compound 241] |
| < 100 | CC(c1ccc(O)cc1)c1nnc2sc(Nc3cccc(F)c3)nn12 (stereo not drawn) [Compound 100] |
| > 2000 | CN(C)c1ccc(Cc2nnc3ccc(-c4ccccc4)nn23)cc1 [Compound 212] |

| Ki [nM] | Compound |
| --- | --- |
| 100 to 2000 | COc1ccc(Nc2nn3c(Cc4ccc(O)c(Cl)c4)nnc3s2)cc1 [Compound 39] |
| 100 to 2000 | CC(O)c1cccc(Nc2ccc3nnc(Cc4ccc5c(c4)OCO5)n3n2)c1 (stereo not drawn) [Compound 258] |
| > 2000 | Oc1ccc(CCc2nnc3sc(Nc4cccc(F)c4)nn23)cc1 [Compound 93] |
| 100 to 2000 | Oc1ccc(Cc2nnc3sc(NCc4ccccc4)nn23)cc1 [Compound 8] |
| 100 to 2000 | Oc1ccc(Cc2nnc3ccc(NC4CCN(Cc5ccccc5)C4)nn23)cc1 (stereo not drawn) [Compound 273] |
| < 100 | Oc1ccc(Cc2nnc3sc(Nc4ccc(Cl)cc4)nn23)cc1 [Compound 52] |
| 100 to 2000 | Oc1ccc(Cc2nnc3ccc(Cl)nn23)cc1 [Compound 174] |
| < 100 | CC(c1nnc2sc(Nc3cccc(Cl)c3)nn12)n1ccc2ncccc21 (stereo not drawn) [Compound 161] |
| 100 to 2000 | C[C@H](c1ccc(O)cc1)c1nnc2sc(Nc3ccc(Cl)cc3)nn12 [Compound 118] |
| 100 to 2000 | Fc1cccc(Nc2nn3c(Cn4ccc5ncccc54)nnc3s2)c1 [Compound 134] |
| < 100 | COc1ccc(Cc2nnc3ccc(Nc4cccc(Cl)c4)nn23)cc1 [Compound 238] |
| > 2000 | O=C(Nc1nn2c(Cc3ccc(O)cc3)nnc2s1)c1ccccc1 [Compound 57] |
| < 100 | Cc1cccc(Nc2nn3c(Cc4ccc(O)cc4)nnc3s2)c1 [Compound 44] |
| < 100 | CSc1cccc(Nc2nn3c(Cn4ccc5c(O)cccc54)nnc3s2)c1 [Compound 169] |
| 100 to 2000 | Cc1cccc(Nc2nn3c(Cn4ccc5ncccc54)nnc3s2)c1 [Compound 135] |
| > 2000 | O=C(Nc1ccccc1)Nc1nn2c(Cc3ccc(O)cc3)nnc2s1 [Compound 113] |
| > 2000 | COc1cccc(Nc2ccc3nnc(Cc4ccncc4)n3n2)c1 [Compound 244] |
| 100 to 2000 | COc1cccc(Nc2ccc3nnc(Cc4ccc5c(c4)OCO5)n3n2)c1 [Compound 243] |
| 100 to 2000 | Oc1ccc(Cc2nnc3sc(Nc4ccccc4Cl)nn23)cc1Cl [Compound 67] |
| 100 to 2000 | COc1ccc(Cc2nnc3sc(-c4ccccn4)nn23)cc1 [Compound 20] |
